Measurements reported in PubChem BioAssay AID330 (DTP/NCI, 2004).
Several values for one entry are separate records, joined by “and”; a condition that tells them apart may be missing. Equal values may be shown once. Inconclusive results and toxic doses are left out.

Test system: P388 leukemia ip, CD2F1 mice, survival T/C
Experiment: NCI In Vivo Anticancer Drug Screen. Data for tumor model P388 Leukemia (intraperitoneal) in CD2F1 (CDF1) mice
Settings: endpoint: median survival time, higher = longer survival
Procedure, shortened: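 Mice carrying the transplanted tumor received test compound or vehicle. Survival was recorded in each group, and the value is the treated-group measurement divided by that of the vehicle-treated control group.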

[1] = dose: 50.0 mg/kg/injection, schedule: Q01DX009 (ip), vehicle: saline with Tween-80
[2] = dose: 100.0 mg/kg/injection, schedule: Q01DX009 (ip), vehicle: saline with Tween-80
[3] = dose: 200.0 mg/kg/injection, schedule: Q01DX009 (ip), vehicle: saline with Tween-80
[4] = dose: 100.0 mg/kg/injection, schedule: Q01DX001 (ip), vehicle: saline with Tween-80
[5] = dose: 50.0 mg/kg/injection, schedule: Q01DX009 (ip), vehicle: saline
[6] = dose: 100.0 mg/kg/injection, schedule: Q01DX009 (ip), vehicle: saline
[7] = dose: 50.0 mg/kg/injection, schedule: Q01DX005 (ip), vehicle: Klucel (hydroxypropylcellulose) (HPC)
[8] = dose: 60.0 mg/kg/injection, schedule: Q01DX005 (ip), vehicle: saline with Tween-80
[9] = dose: 120.0 mg/kg/injection, schedule: Q01DX005 (ip), vehicle: saline with Tween-80
[10] = dose: 100.0 mg/kg/injection, schedule: Q01DX005 (ip), vehicle: saline with Tween-80
[11] = dose: 100.0 mg/kg/injection, schedule: Q01DX005 (ip), vehicle: Klucel (hydroxypropylcellulose) (HPC)
[12] = dose: 12.5 mg/kg/injection, schedule: Q01DX009 (ip), vehicle: Klucel (hydroxypropylcellulose) (HPC)
[13] = dose: 25.0 mg/kg/injection, schedule: Q01DX009 (ip), vehicle: Klucel (hydroxypropylcellulose) (HPC)
[14] = dose: 50.0 mg/kg/injection, schedule: Q01DX009 (ip), vehicle: Klucel (hydroxypropylcellulose) (HPC)
[15] = dose: 100.0 mg/kg/injection, schedule: Q01DX009 (ip), vehicle: Klucel (hydroxypropylcellulose) (HPC)
[16] = dose: 200.0 mg/kg/injection, schedule: Q01DX009 (ip), vehicle: Klucel (hydroxypropylcellulose) (HPC)
[17] = dose: 50.0 mg/kg/injection, schedule: Q01DX005 (ip), vehicle: saline with Tween-80
[18] = dose: 200.0 mg/kg/injection, schedule: Q01DX005 (ip), vehicle: saline with Tween-80
[19] = dose: 50.0 mg/kg/injection, schedule: Q01DX005 (ip), vehicle: saline
[20] = dose: 100.0 mg/kg/injection, schedule: Q01DX005 (ip), vehicle: saline
[21] = dose: 200.0 mg/kg/injection, schedule: Q01DX005 (ip), vehicle: saline
[22] = dose: 240.0 mg/kg/injection, schedule: Q01DX005 (ip), vehicle: saline with Tween-80
[23] = dose: 200.0 mg/kg/injection, schedule: Q01DX005 (ip), vehicle: Klucel (hydroxypropylcellulose) (HPC)

CC1=Nc2ccc([N+](=O)[O-])cc2N=C(C)C1
T/C [1]: 101 % of control
T/C [2]: 98 % of control
T/C (dose: 100.0 mg/kg/injection, schedule: Q04DX002 (ip), vehicle: saline): 101 % of control
T/C [3]: 90 % of control
T/C (dose: 200.0 mg/kg/injection, schedule: Q04DX002 (ip), vehicle: saline): 101 % of control
T/C (dose: 400.0 mg/kg/injection, schedule: Q04DX002 (ip), vehicle: saline): 105 % of control

Cc1cc(O)c2c3c(c(=O)oc2c1)CP(=O)(c1ccccc1)CC3 (stereo not given)
T/C [4]: 94 % of control
T/C (dose: 200.0 mg/kg/injection, schedule: Q01DX001 (ip), vehicle: saline with Tween-80): 91 % of control
T/C (dose: 400.0 mg/kg/injection, schedule: Q01DX001 (ip), vehicle: saline with Tween-80): 91 % of control

O=c1cnn2c(n1)OC1C(O)C(CO)OC12 (stereo not given)
T/C [1]: 97 % of control
T/C [2]: 97 % of control
T/C [3]: 93 % of control

Cn1cnccc1=O
T/C (dose: 6.25 mg/kg/injection, schedule: Q01DX009 (ip), vehicle: saline): 102 % of control
T/C (dose: 12.5 mg/kg/injection, schedule: Q01DX009 (ip), vehicle: saline): 103 % of control
T/C (dose: 25.0 mg/kg/injection, schedule: Q01DX009 (ip), vehicle: saline): 106 % of control
T/C [5]: 106 % of control
T/C [6]: 103 % of control

CCn1c(COc2c(I)cc(I)c3cccnc23)n[nH]c1=S
T/C (dose: 6.25 mg/kg/injection, schedule: Q01DX005 (ip), vehicle: Klucel (hydroxypropylcellulose) (HPC)): 96 % of control
T/C (dose: 12.5 mg/kg/injection, schedule: Q01DX005 (ip), vehicle: Klucel (hydroxypropylcellulose) (HPC)): 98 % of control
T/C (dose: 25.0 mg/kg/injection, schedule: Q01DX005 (ip), vehicle: Klucel (hydroxypropylcellulose) (HPC)): 102 % of control
T/C [7]: 98 % of control

CCN(CC)CCNC(=O)C(O)C1CCCCC1 (stereo not given)
T/C [8]: 99 % of control
T/C [9]: 99 % of control

COc1ccc2c(c1)n([O-])c1ccccc1[n+]2=O
T/C (dose: 25.0 mg/kg/injection, schedule: Q01DX005 (ip), vehicle: saline with Tween-80): 122 % of control
T/C [10]: 157 % of control and 172 % of control

COc1ccc(C(Cc2ccccc2)NCCNCCO)cc1 (stereo not given)
T/C [7]: 101 % of control
T/C [11]: 101 % of control

CC(C)(C)N=C(CCNc1ccccc1Cl)Nc1ccccc1Cl
T/C [1]: 103 % of control
T/C [2]: 103 % of control
T/C [3]: 86 % of control

COC(=O)/C(=N\NS(=O)(=O)c1ccc(C)cc1)c1ccccc1
T/C [12]: 99 % of control
T/C [13]: 105 % of control
T/C [14]: 99 % of control
T/C [15]: 98 % of control
T/C [16]: 90 % of control

Cn1cccc1/C=N/N1CC(=O)N(c2ccc(Cl)cc2)CC1=O
T/C [17]: 110 % of control
T/C [10]: 106 % of control
T/C [18]: 88 % of control

NCCCC(N)(C(=O)O)C(F)F (stereo not given)
T/C [19]: 106 % of control
T/C (dose: 50.0 mg/kg/injection, schedule: Q01DX009 (ip), vehicle: distilled water + alcohol): 112 % of control
T/C [5]: 87 % of control
T/C [20]: 103 % of control
T/C (dose: 100.0 mg/kg/injection, schedule: Q01DX009 (ip), vehicle: distilled water + alcohol): 112 % of control
T/C [6]: 103 % of control
T/C [21]: 103 % of control
T/C (dose: 200.0 mg/kg/injection, schedule: Q01DX009 (ip), vehicle: distilled water + alcohol): 115 % of control
T/C (dose: 200.0 mg/kg/injection, schedule: Q01DX009 (ip), vehicle: saline): 110 % of control
T/C (dose: 400.0 mg/kg/injection, schedule: Q01DX009 (ip), vehicle: distilled water + alcohol): 119 % of control
T/C (dose: 800.0 mg/kg/injection, schedule: Q01DX009 (ip), vehicle: distilled water + alcohol): 111 % of control

O=[N+]([O-])C(CO)CCCC(CO)[N+](=O)[O-] (stereo not given)
T/C [19]: 111 % of control
T/C [20]: 107 % of control
T/C [21]: 107 % of control

Cn1cc(-c2ccc3c(c2)OCO3)c2ccccc21
T/C [8]: 100 % of control
T/C [9]: 100 % of control
T/C [22]: 101 % of control

CCn1c(=O)[nH]c(=O)c2[nH]c(Cl)nc21
T/C (dose: 16.0 mg/kg/injection, schedule: Q01DX009 (ip), vehicle: Klucel (hydroxypropylcellulose) (HPC)): 103 % of control
T/C [13]: 105 % of control
T/C (dose: 32.0 mg/kg/injection, schedule: Q01DX009 (ip), vehicle: Klucel (hydroxypropylcellulose) (HPC)): 107 % of control
T/C [14]: 91 % of control
T/C (dose: 64.0 mg/kg/injection, schedule: Q01DX009 (ip), vehicle: Klucel (hydroxypropylcellulose) (HPC)): 102 % of control
T/C [15]: 93 % of control

CC(=O)Nc1ccc2c(=O)n(O)c(=O)[nH]c2c1
T/C [7]: 102 % of control
T/C [11]: 103 % of control
T/C [23]: 106 % of control

O=S(=O)(c1ccccc1)N1CN2CCN(C2)C1
T/C [1]: 123 % of control
T/C [3]: 150 % of control

O=C(O)CC1SC2(C(=O)N(Cc3ccccc3)c3ccccc32)N(c2ccccc2)C1=O (stereo not given)
T/C [17]: 89 % of control
T/C [10]: 95 % of control
T/C [18]: 89 % of control

O=C1C(Br)=C(Br)C(=O)c2c(Cl)ccc(O)c21
T/C [12]: 101 % of control
T/C [13]: 98 % of control
T/C [14]: 101 % of control and 105 % of control
T/C [15]: 88 % of control
T/C [16]: 100 % of control

CC1=N/C(=C\c2ccc(Br)cc2)C(=O)O1
T/C [7]: 109 % of control
T/C [11]: 98 % of control
T/C [23]: 112 % of control

c1ccc(C2=NN(c3ccccc3)C3C4CCC(C4)C23)cc1 (stereo not given)
T/C (dose: 100.0 mg/kg/injection, schedule: Q04DX003 (ip), vehicle: Klucel (hydroxypropylcellulose) (HPC)): 93 % of control
T/C (dose: 200.0 mg/kg/injection, schedule: Q04DX003 (ip), vehicle: Klucel (hydroxypropylcellulose) (HPC)): 93 % of control
T/C (dose: 400.0 mg/kg/injection, schedule: Q04DX003 (ip), vehicle: Klucel (hydroxypropylcellulose) (HPC)): 91 % of control

COc1ccc(-c2cn(-c3ccccc3)c3ncnc(N)c23)cc1
T/C [8]: 102 % of control
T/C [9]: 103 % of control
T/C [22]: 103 % of control

CC(=O)C(CCCn1c(=O)c2c(ncn2C)n(C)c1=O)CCCn1c(=O)c2c(ncn2C)n(C)c1=O
T/C (dose: 60.0 mg/kg/injection, schedule: Q01DX005 (ip), vehicle: Klucel (hydroxypropylcellulose) (HPC)): 102 % of control
T/C (dose: 120.0 mg/kg/injection, schedule: Q01DX005 (ip), vehicle: Klucel (hydroxypropylcellulose) (HPC)): 99 % of control
T/C (dose: 240.0 mg/kg/injection, schedule: Q01DX005 (ip), vehicle: Klucel (hydroxypropylcellulose) (HPC)): 104 % of control

Cc1nc(Cl)c(C)c(C(=O)O)n1
T/C (dose: 6.25 mg/kg/injection, schedule: Q01DX009 (ip), vehicle: other): 117 % of control
T/C (dose: 12.5 mg/kg/injection, schedule: Q01DX009 (ip), vehicle: other): 114 % of control
T/C (dose: 25.0 mg/kg/injection, schedule: Q01DX009 (ip), vehicle: other): 107 % of control
T/C (dose: 50.0 mg/kg/injection, schedule: Q01DX009 (ip), vehicle: other): 99 % of control
T/C (dose: 100.0 mg/kg/injection, schedule: Q01DX009 (ip), vehicle: other): 98 % of control

CO/N=C/c1ccc[n+](C)c1
T/C [17]: 105 % of control
T/C [10]: 105 % of control

CCCCCCCCCC1OCN2CCCCC12 (stereo not given)
T/C [19]: 105 % of control
T/C [20]: 96 % of control
T/C [21]: 115 % of control

CNc1ccc(C=C2c3ccccc3-c3ccccc32)cc1
T/C (dose: 12.5 mg/kg/injection, schedule: Q01DX001 (ip), vehicle: saline with Tween-80): 102 % of control
T/C (dose: 25.0 mg/kg/injection, schedule: Q01DX001 (ip), vehicle: saline with Tween-80): 105 % of control
T/C (dose: 50.0 mg/kg/injection, schedule: Q01DX001 (ip), vehicle: saline with Tween-80): 112 % of control
T/C [4]: 106 % of control
